# Read-outs that look alike come from different tables or passages of the source.
# Tests used:
# DNMT1 = DNMT1 (Homo sapiens, UniProt P26358); assay: DNMT1 activity assay (Poly(dI-dC) substrate, ^3H-SAM); assay type: biochemical; settings: read-out: IC50, DNMT-1 activity
# Procedure: (§2) For the DNMT1 activity assay, the substrate solution, 0.001 mg/ml Poly(dI-dC):Poly(dI-dC) in 50 mM Tris-HCl, pH 7.5, 50 mM NaCl, 5 mM EDTA, 5 mM DTT, 1 mM PMSF, 5% glycerol, 0.01% Brij35, 1% DMSO was used. For the DNMT3a/3b activity assay, 0.0075 mg/ml Lambda DNA in 50 mM Tris-HCl, pH 7.5, 50 mM NaCl, 5 mM EDTA, 5 mM DTT, 1 mM PMSF, 5% glycerol, 1% DMSO, was used. The indicated DNMT1, DNMT3a, or DNMT3b was added to the appropriate substrate solution and gently mixed. […] The mixtures were first incubated for 15 min, then ^3H-SAM was added to the reaction mixture to initiate the reaction, and the mixture was incubated for 60 min at 30° C. Following incubation, the reaction mixture was finally transferred to filter-paper for detection of radioactivity counts.
# DNMT3a = DNMT3a (Homo sapiens, UniProt Q9Y6K1); assay: DNMT3a activity assay (Lambda DNA substrate, ^3H-SAM); assay type: biochemical; settings: read-out: IC50, DNMT3a activity
# Procedure: as §2
# [1] = system: CpG sites in promoter regions of LINE-1 element, Huh-7 cells; assay: LINE-1 global methylation assay; assay type: cell-based, human; settings: Huh-7 cells in HG media, 25HC3S for 4 hours
# Procedure: Each sample, 2 μg, was sent to […], Inc. (Hopkinton, Mass.) for analysis of global methylation bisulfite sequencing. The same samples, 6 μg, were sent to Novogene Co., Ltd (Tianjin, China) for analysis of whole genome bisulfite sequencing (WGBS). Total RNA was isolated using the Promega SV total RNA isolation system (Madison, Wis.) with DNase treatment. […] Real-time RT-PCR was performed using SYBR Green as the indicator on ABI 7500 Fast Real-Time PCR System (Applied Biosystems, Foster City, Calif.). Amplifications of β-actin or GAPDH were used as internal controls. Relative messenger RNA (mRNA) expression was quantified with the comparative cycle threshold (Ct) method using the primer set shown in Table 1.1 and was expressed as 2^-ΔΔCt. […] PCR reaction and product purification were performed as per the manufacturer's protocol (GE Healthcare Life Sciences). The PCR products, 10 μl, were sequenced by Pyrosequencing on the PSQ96 HS System following the manufacturer's instructions (Pyrosequencing, Qiagen). The methylation status of each CpG site was determined individually as an artificial C/T SNP using QCpG software (Pyrosequencing, Qiagen). The methylation level at each CpG site was calculated as the percentage of the methylated alleles divided by the sum of all methylated and unmethylated alleles. The mean methylation level was calculated using methylation levels of all measured CpG sites within the targeted region of each gene. Each experiment included non-CpG cytosines as internal controls to detect incomplete bisulfite conversion of the input DNA. In addition, a series of unmethylated and methylated DNA were included as controls in each PCR assay. Furthermore, PCR bias testing was performed by mixing unmethylated control DNA with in vitro methylated DNA at different ratios (0%, 5%, 10%, 25%, 50%, 75%, and 100%), followed by bisulfite modification, PCR, and Pyro-sequencing analysis.
# Huh-7 cells = assay: Real-time RT-PCR gene expression; assay type: cell-based, human; settings: Huh-7, HG 72 hours; 25HC3S 6.25-50 μM, 1-8 hours
# Procedure: FIGS. 3A-3D. Expression of key genes related to signaling pathways. […] Key Genes and their targeting genes expression were determined by RT-PCR analysis. […] Each sample, 2 μg, was sent to […], Inc. (Hopkinton, Mass.) for analysis of global methylation bisulfite sequencing. The same samples, 6 μg, were sent to Novogene Co., Ltd (Tianjin, China) for analysis of whole genome bisulfite sequencing (WGBS). Total RNA was isolated using the Promega SV total RNA isolation system (Madison, Wis.) with DNase treatment. […] Real-time RT-PCR was performed using SYBR Green as the indicator on ABI 7500 Fast Real-Time PCR System (Applied Biosystems, Foster City, Calif.). Amplifications of β-actin or GAPDH were used as internal controls. Relative messenger RNA (mRNA) expression was quantified with the comparative cycle threshold (Ct) method using the primer set shown in Table 1.1 and was expressed as 2^-ΔΔCt.
# [2] = Plasma pharmacokinetics, single intravenous dose; assay type: in vivo, Sprague Dawley rats; settings: single intravenous (bolus) dose 10 mg/kg
# Procedure: (§1) Nine male Sprague Dawley rats (Group 1) were designated for the pharmacokinetic phase, 3 male Sprague Dawley rats (Group 2) for the excretion mass balance phase, and 7 male Sprague Dawley rats (Group 3) and 9 male Long Evans rats (Group 4) for the tissue distribution phase. All animals received a single intravenous dose of [^14C]-25HC3S at 10 mg/kg and a target radioactivity of 225 μCi/kg. Blood samples were collected from all Group 1 animals at approximately 0.083, 0.25, 0.5, 1, 2, 4, 8, 12, 24, 48, and 72 hours post-dose. Urine and feces were collected from all Group 2 animals periodically through 168 hours post-dose. […] Following blood collection, animals were euthanized by CO2 inhalation and carcasses frozen in a dry ice/hexane bath for processing by quantitative whole body autoradiography. Whole blood, plasma, urine, feces, cage rinse, and cage wash were analyzed for total radioactivity by liquid scintillation counting.
# [3] = Excretion mass balance, single intravenous dose; assay type: in vivo, Sprague Dawley rats; settings: intravenous 10 mg/kg, over 168 hours
# Procedure: as §1
# [4] = Tissue distribution by quantitative whole body autoradiography, intravenous dose; assay type: in vivo, Sprague Dawley rats; settings: intravenous 10 mg/kg
# Procedure: as §1
# [5] = Metabolite profiling of plasma, urine, feces, intravenous dose; assay type: in vivo, Sprague Dawley rats; settings: intravenous 10 mg/kg
# Procedure: as §1
# [6] = parameters: species or system rats; settings: rat, in vivo, po, 75 mg/kg
# Procedure: The terminal elimination phase T1/2 was 27.3 hours.
# [7] = parameters: species or system rats; settings: Sprague Dawley, rat, in vivo, po, 75 mg/kg
# [8] = rat, in vivo, po, 75 mg/kg
# Procedure: Plasma concentrations were similar to those determined in the pharmacokinetics phase and were above the lower limit of quantitation.
# Pancreas and liver concentrations ranged from 23,500 ng equiv./g to 28,100 ng equiv./g. Uveal tract and brain concentrations were lowest relative to the other tissues and were approximately 1000 ng equiv./g. Skin, thymus, prostate, and pituitary tissue concentrations were <3000 ng equiv./g. Remaining tissues had concentrations between 3600 ng-equiv./g and 10,700 ng equiv./g. […] As calculated using AUClast, the tissue:plasma ratios were highest for the small intestine (wall, 15.4) followed by the liver and adrenal gland at 6.96 and 6.64, respectively. High liver and small intestine concentrations are consistent with oral administration and biliary (fecal) excretion.
# DNMT1, sequence (P26358 whole entry): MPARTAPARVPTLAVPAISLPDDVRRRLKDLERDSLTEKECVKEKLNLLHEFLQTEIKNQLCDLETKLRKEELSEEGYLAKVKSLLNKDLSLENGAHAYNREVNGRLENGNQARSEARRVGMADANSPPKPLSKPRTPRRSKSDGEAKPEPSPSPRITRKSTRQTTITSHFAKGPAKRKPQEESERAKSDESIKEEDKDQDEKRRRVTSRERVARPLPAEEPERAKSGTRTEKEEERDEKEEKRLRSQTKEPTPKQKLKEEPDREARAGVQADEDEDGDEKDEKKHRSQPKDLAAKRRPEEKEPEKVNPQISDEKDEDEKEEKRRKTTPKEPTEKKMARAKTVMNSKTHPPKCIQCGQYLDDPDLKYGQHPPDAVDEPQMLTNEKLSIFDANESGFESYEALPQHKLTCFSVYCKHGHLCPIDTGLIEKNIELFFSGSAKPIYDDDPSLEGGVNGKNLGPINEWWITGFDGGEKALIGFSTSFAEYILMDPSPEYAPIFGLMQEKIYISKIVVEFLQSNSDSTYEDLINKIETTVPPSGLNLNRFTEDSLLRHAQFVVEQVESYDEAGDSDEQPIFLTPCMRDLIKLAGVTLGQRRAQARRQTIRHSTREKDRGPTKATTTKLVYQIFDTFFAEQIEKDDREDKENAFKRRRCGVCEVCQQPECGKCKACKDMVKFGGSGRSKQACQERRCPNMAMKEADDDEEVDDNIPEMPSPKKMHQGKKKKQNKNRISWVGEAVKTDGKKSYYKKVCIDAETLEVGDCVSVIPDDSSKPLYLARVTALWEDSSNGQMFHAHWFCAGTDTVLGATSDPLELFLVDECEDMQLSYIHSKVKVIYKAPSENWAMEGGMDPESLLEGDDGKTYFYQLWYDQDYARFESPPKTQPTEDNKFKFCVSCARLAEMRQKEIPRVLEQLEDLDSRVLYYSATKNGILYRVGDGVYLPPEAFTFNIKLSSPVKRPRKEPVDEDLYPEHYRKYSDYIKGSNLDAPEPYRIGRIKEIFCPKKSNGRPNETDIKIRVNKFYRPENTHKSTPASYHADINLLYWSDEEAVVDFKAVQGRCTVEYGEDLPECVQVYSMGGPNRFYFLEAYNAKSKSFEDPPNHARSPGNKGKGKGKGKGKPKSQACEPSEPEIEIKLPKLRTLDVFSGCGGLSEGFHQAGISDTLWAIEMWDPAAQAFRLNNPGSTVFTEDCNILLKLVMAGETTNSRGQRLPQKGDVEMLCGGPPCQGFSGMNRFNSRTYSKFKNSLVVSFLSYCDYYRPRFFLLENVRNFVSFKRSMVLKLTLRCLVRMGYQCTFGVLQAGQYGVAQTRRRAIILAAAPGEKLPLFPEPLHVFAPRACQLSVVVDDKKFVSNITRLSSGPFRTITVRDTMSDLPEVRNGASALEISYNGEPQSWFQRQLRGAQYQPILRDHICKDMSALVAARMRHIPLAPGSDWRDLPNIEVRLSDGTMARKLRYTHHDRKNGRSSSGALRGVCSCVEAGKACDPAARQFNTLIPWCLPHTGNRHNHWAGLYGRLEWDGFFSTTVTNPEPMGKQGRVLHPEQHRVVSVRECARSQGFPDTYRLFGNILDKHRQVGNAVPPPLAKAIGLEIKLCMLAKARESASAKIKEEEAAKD
# DNMT3a, sequence (Q9Y6K1 whole entry, looked up): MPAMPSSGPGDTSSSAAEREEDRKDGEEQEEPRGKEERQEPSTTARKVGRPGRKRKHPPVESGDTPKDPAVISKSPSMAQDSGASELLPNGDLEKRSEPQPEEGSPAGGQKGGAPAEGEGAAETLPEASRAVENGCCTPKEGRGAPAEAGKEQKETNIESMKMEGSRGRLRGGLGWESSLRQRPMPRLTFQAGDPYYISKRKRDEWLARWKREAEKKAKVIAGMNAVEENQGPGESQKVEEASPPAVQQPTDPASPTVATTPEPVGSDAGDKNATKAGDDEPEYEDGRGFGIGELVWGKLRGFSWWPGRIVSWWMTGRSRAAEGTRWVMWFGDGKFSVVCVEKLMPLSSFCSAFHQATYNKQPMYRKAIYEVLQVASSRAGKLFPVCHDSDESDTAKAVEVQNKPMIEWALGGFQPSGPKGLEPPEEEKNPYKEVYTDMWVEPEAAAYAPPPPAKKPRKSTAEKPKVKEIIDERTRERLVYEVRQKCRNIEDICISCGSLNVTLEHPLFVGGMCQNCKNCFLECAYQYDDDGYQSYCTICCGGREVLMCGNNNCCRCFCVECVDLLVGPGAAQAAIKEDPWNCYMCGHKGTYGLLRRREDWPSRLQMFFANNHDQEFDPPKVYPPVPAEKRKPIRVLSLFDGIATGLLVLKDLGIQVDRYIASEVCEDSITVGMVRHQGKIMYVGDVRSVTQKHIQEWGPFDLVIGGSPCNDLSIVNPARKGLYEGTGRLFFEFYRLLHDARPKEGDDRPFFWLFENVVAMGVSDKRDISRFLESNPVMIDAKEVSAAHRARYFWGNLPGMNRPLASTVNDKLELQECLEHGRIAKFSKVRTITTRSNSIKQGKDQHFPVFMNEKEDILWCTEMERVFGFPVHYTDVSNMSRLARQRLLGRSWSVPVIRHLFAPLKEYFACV
compound,measurement,setting,value
"C[C@H](CCCC(C)(C)O)[C@H]1CC[C@H]2[C@@H]3CC=C4C[C@@H](OS(=O)(=O)O)CC[C@]4(C)[C@H]3CC[C@]12C [25HC3S, 5-Cholesten-3β, 25-diol 3-sulfate]",IC50,DNMT1,4.04 µM
same,IC50,DNMT3a,3.03 µM
same,Reduction of methylation (demethylation) at Pos1 of LINE-1,[1],−5%
same,Reduction of methylation (demethylation) at Pos3 of LINE-1,[1],−10%
same,Reduction of methylation (demethylation) at Pos 4 of LINE-1,[1],−5.6%
same,decreased expression of FAS,Huh-7 cells,~90%
same,decreased expression of HMGR,Huh-7 cells,~90%
same,increased expression of CREB5,Huh-7 cells,up to 20 fold
same,increased expression of DUSP8,Huh-7 cells,5 fold
same,increased expression of PGC1A,Huh-7 cells,12 fold
same,plasma AUClast,[2],"27,900 h*ng-equiv./g"
same,"terminal elimination phase T1/2, plasma",[2]; PK phase,26.6 h
same,"dose recovered in urine, feces, and cage rinse",[3],approximately 100.2%
same,recovered radioactivity in feces,[3],83.0%
same,AUClast in liver,[4],"≤ 364,000 h ng/g"
same,tissues in which radioactivity was detected,[4],all tissues except the eye (lens)
same,whole blood AUClast,[4],"25,200 h*ng-equiv./g"
same,T1/2 in plasma,[4]; QWBA phase,44.3 h
same,T1/2 in whole blood,[4]; QWBA phase,52.2 h
same,% of dose in feces,[5]; 0 to 48 hours post-dose,2 % of dose
same,share of exposure (AUC) to 25HC3S related radioactivity in plasma,[5]; up to 1 hour post-dose,approximately 54%
same,terminal elimination phase T1/2,[6]; Sprague Dawley,27.3 h
same,plasma AUClast,[6],"96,400 h·ng equiv./g"
same,plasma Cmax,[6],3800 ng equiv./g
same,"dose recovered in urine, feces, and cage rinse",[7],approximately 94.5%
same,recovered radioactivity in feces,[7],94.2%
same,Cmax in small intestine (wall),[8],"424,000 ng equiv./g"
same,Cmax in stomach (wall),[8],"204,000 ng equiv./g"
same,tissue Tmax,[8],≤ 6 hours post-dose
same,tissues in which radioactivity was detected,[8],all tissues except the eye (lens)
same,whole blood AUClast,[8],"127,000 h ng equiv./g"
same,whole blood Cmax,[8],2850 ng equiv/g

# — US20230218639A1, “USE OF OXYGENATED CHOLESTEROL SULFATES FOR TREATING NEUROLOGICAL CONDITIONS, NEURODEGENERATIVE DISEASES, AND ADDICTION” (Durect Corporation, priority 2020, published 2023)
